Experimental data from ChEMBL document CHEMBL3751769, “Design, synthesis, and evaluation of semi-conservative mono-carbonyl analogs of curcumin as anti-inflammatory agents against lipopolysaccharide-induced acute lung injury” (Medchemcomm, 2015).
Active and inactive are the calls of the source. No cut-off for these calls is given here.

Key:
[1] = test system: RAW264.7; test: Anti-inflammatory activity in mouse RAW264.7 cells assessed as inhibition of IL-6 production at 10 uM preincubated for 30 mins followed by 0.5 ug/ml LPS addition after 24 hrs by ELISA; assay type: functional
[2] = test system: RAW264.7; test: Anti-inflammatory activity in mouse RAW264.7 cells assessed as inhibition of TNFalpha production at 10 uM preincubated for 30 mins followed by 0.5 ug/ml LPS addition after 24 hrs by ELISA; assay type: functional
[3] = Cytotoxicity against human HL-7702 cells assessed as cell viability at 10 uM after 24 hrs by MTT assay; assay type: cell-based; settings: l02, 24 h
[4] = test system: RAW264.7; test: Anti-inflammatory activity in mouse RAW264.7 cells assessed as inhibition of IL-6 production preincubated for 30 mins followed by 0.5 ug/ml LPS addition after 24 hrs by ELISA; assay type: functional, cell-based
[5] = test system: RAW264.7; test: Anti-inflammatory activity in mouse RAW264.7 cells assessed as inhibition of TNFalpha production preincubated for 30 mins followed by 0.5 ug/ml LPS addition after 24 hrs by ELISA; assay type: functional, cell-based
[6] = test system: Rattus norvegicus; test: Anti-inflammatory activity in Sprague-Dawley rat assessed as decrease in LPS- induced elevation of BALF protein concentration at 20 mg/kg/day, po for 7 days pre-treated before LPS challenge and measured 6 hrs after LPS challenge; assay type: functional, organism-based
[7] = test system: Rattus norvegicus; test: Anti-inflammatory activity in Sprague-Dawley rat assessed as reduction in LPS-induced histopathological changes at 20 mg/kg/day, po for 7 days pre-treated before LPS challenge and measured 6 hrs after LPS challenge by light microscopic analysis; assay type: functional, organism-based
[8] = test system: Rattus norvegicus; test: Anti-inflammatory activity in Sprague-Dawley rat assessed as decrease in LPS- induced number of neutrophils in BALF at 20 mg/kg/day, po for 7 days pre-treated before LPS challenge and measured 6 hrs after LPS challenge by Wright-Giemsa staining method; assay type: functional, organism-based
[9] = test system: Rattus norvegicus; test: Anti-inflammatory activity in Sprague-Dawley rat assessed as decrease in LPS- induced amount of TNFalpha in BALF at 20 mg/kg/day, po for 7 days pre-treated before LPS challenge and measured 6 hrs after LPS challenge by ELISA; assay type: functional, organism-based
[10] = test system: Rattus norvegicus; test: Anti-inflammatory activity in Sprague-Dawley rat assessed as decrease in LPS- induced wet/dry ratio of lung tissue at 20 mg/kg/day, po for 7 days pre-treated before LPS challenge and measured 6 hrs after LPS challenge; assay type: functional, organism-based
[11] = test system: Rattus norvegicus; test: Anti-inflammatory activity in Sprague-Dawley rat assessed as decrease in LPS-induced IL1beta mRNA expression at 20 mg/kg/day, po for 7 days pre-treated before LPS challenge by real-time qPCR analysis; assay type: functional
[12] = test system: Rattus norvegicus; test: Anti-inflammatory activity in Sprague-Dawley rat assessed as decrease in LPS-induced TNFalpha mRNA expression at 20 mg/kg/day, po for 7 days pre-treated before LPS challenge by real-time qPCR analysis; assay type: functional
[13] = test system: BEAS-2B; test: Anti-inflammatory activity in human BEAS2B cells assessed as inhibition of LPS-induced TNFalpha mRNA expression by real-time qPCR analysis; assay type: functional; set-up: scale not given: the % may be the effect or the level left
[14] = test system: BEAS-2B; test: Anti-inflammatory activity in human BEAS2B cells assessed as inhibition of LPS-induced IL6 mRNA expression by real-time qPCR analysis; assay type: functional; set-up: scale not given: the % may be the effect or the level left
[15] = test system: BEAS-2B; test: Anti-inflammatory activity in human BEAS2B cells assessed as inhibition of LPS-induced IL1beta mRNA expression by real-time qPCR analysis; assay type: functional; set-up: scale not given: the % may be the effect or the level left
[16] = test system: BEAS-2B; test: Anti-inflammatory activity in human BEAS2B cells assessed as inhibition of LPS-induced COX2 mRNA expression by real-time qPCR analysis; assay type: functional; set-up: scale not given: the % may be the effect or the level left
[17] = test system: Rattus norvegicus; test: Anti-inflammatory activity in Sprague-Dawley rat assessed as decrease in LPS-induced IL6 mRNA expression at 20 mg/kg/day, po for 7 days pre-treated before LPS challenge by real-time qPCR analysis; assay type: functional
[18] = test system: Rattus norvegicus; test: Anti-inflammatory activity in Sprague-Dawley rat assessed as decrease in LPS-induced COX2 mRNA expression at 20 mg/kg/day, po for 7 days pre-treated before LPS challenge by real-time qPCR analysis; assay type: functional
[19] = test system: Rattus norvegicus; test: Anti-inflammatory activity in Sprague-Dawley rat assessed as decrease in LPS-induced ICAM1 mRNA expression at 20 mg/kg/day, po for 7 days pre-treated before LPS challenge by real-time qPCR analysis; assay type: functional
[20] = test system: Rattus norvegicus; test: Anti-inflammatory activity in Sprague-Dawley rat assessed as decrease in LPS-induced VCAM1 mRNA expression at 20 mg/kg/day, po for 7 days pre-treated before LPS challenge by real-time qPCR analysis; assay type: functional

Structure (SMILES) | inhibition [1] | inhibition [2] | Activity [3] | further results
COc1cc(/C=C2\CCC/C(=C\c3c(F)cccc3F)C2=O)ccc1O | Active | Active | Non-toxic | –
COc1cc(/C=C2\CCC/C(=C\c3ccc(F)c(F)c3)C2=O)ccc1O | Active | Active | Non-toxic | –
COc1cc(/C=C2\CCC/C(=C\c3cc4c(cc3Br)OCO4)C2=O)ccc1O | Active | Active | Non-toxic | –
COc1cc(/C=C2\CCC/C(=C\c3ccc(O)cc3)C2=O)ccc1O | Active | Active | Non-toxic | –
COc1cc(/C=C2\CC/C(=C\c3cc4c(cc3Br)OCO4)C2=O)ccc1O | Active | Active | Non-toxic | –
COc1cc(/C=C2\CC/C(=C\c3ccc4ccccc4c3)C2=O)ccc1O | Active | Active | Non-toxic | –
COc1cc(/C=C2\CCC/C(=C\c3cccc(OC)c3OC)C2=O)ccc1O | Active | Active | Non-toxic | –
COc1cc(/C=C2\CCC/C(=C\c3ccc(O)c(Br)c3)C2=O)ccc1O | – | – | Non-toxic | inhibition (INH) [1]: >50%; inhibition (INH) [2]: >50%; inhibition [4]: Dose-dependent effect; inhibition [5]: Dose-dependent effect
COc1cc(/C=C2\CCC/C(=C\c3ccccc3C(F)(F)F)C2=O)ccc1O | Active | Active | Non-toxic | –
COc1cc(/C=C2\CCC/C(=C\c3ccccc3Br)C2=O)ccc1O | Active | Active | Non-toxic | –
CCOc1ccc(Br)cc1/C=C1\CCC/C(=C\c2ccc(O)c(OC)c2)C1=O | Active | Active | Non-toxic | –
COc1cc(/C=C2\CCC/C(=C\c3ccc(Cl)c(Cl)c3)C2=O)ccc1O | Active | Active | Non-toxic | –
COc1cc(/C=C2\CCC/C(=C\c3ccc(F)c(Br)c3)C2=O)ccc1O | Active | Active | Non-toxic | –
COc1cc(/C=C2\CCC/C(=C\c3ccc(O)c(O)c3)C2=O)ccc1O | Active | Active | Non-toxic | –
COc1cc(/C=C2\CCC/C(=C\c3ccc4ccccc4c3)C2=O)ccc1O | Active | Active | Non-toxic | –
COc1ccc(/C=C2\CCC/C(=C\c3ccc(O)c(OC)c3)C2=O)cc1O | – | – | Non-toxic | inhibition (INH) [1]: >50%; inhibition (INH) [2]: >50%; inhibition [4]: Dose-dependent effect; inhibition [5]: Dose-dependent effect
COc1cc(/C=C2\CC/C(=C\c3cc(C)ccc3C)C2=O)ccc1O | – | – | Non-toxic | inhibition (INH) [1]: >50%; inhibition (INH) [2]: >50%; inhibition [4]: Dose-dependent effect; inhibition [5]: Dose-dependent effect
COc1cc(/C=C2\CCC/C(=C\c3ccc(Cl)c([N+](=O)[O-])c3)C2=O)ccc1O | Active | Active | Non-toxic | –
COc1cc(/C=C2\CCC/C(=C\c3ccc(Cl)cc3)C2=O)ccc1O | Active | Active | Non-toxic | –

Structure (SMILES) | inhibition [1] | inhibition [2] | Activity [3] | further results
COc1cc(/C=C2\CC/C(=C\c3cc4ccccc4[nH]3)C2=O)ccc1O | – | – | Non-toxic | inhibition (INH) [1]: >50%; inhibition (INH) [2]: >50%
COc1cc(/C=C2\CCC/C(=C\c3ccc(OC)c(OC)c3)C2=O)ccc1O | Active | Active | Non-toxic | –
COc1cc(/C=C2\CC/C(=C\c3c[nH]c4ccc(Br)cc34)C2=O)ccc1O | – | – | Non-toxic | inhibition (INH) [1]: >50%; inhibition (INH) [2]: >50%; inhibition [4]: Dose-dependent effect; inhibition [5]: Dose-dependent effect; Activity [6]: Active; Activity [7]: Active; Activity [8]: Active; Activity [9]: Active; Activity [10]: Active; inhibition in vivo at 20 mg/kg/day [11]: 39.2%; inhibition in vivo at 20 mg/kg/day [12]: 38.4%; Activity [13]: 64.5%; Activity [14]: 30%; Activity [15]: 55.6%; Activity [16]: 64.9%; inhibition in vivo at 20 mg/kg/day [17]: 92.9%; inhibition in vivo at 20 mg/kg/day [18]: 77.3%; inhibition in vivo at 20 mg/kg/day [19]: 74.1%; inhibition in vivo at 20 mg/kg/day [20]: 52.9%
COc1cc(/C=C2\CCC/C(=C\c3ccc(Cl)cc3Cl)C2=O)ccc1O | Active | Active | Non-toxic | –
COc1ccc(/C=C2\CCC/C(=C\c3ccc(O)c(OC)c3)C2=O)cc1 | Active | Active | Non-toxic | –
COc1cc(/C=C2\CCC/C(=C\c3cc(F)ccc3F)C2=O)ccc1O | Active | Active | Non-toxic | –
COc1ccc(OC)c(/C=C2\CCC/C(=C\c3ccc(O)c(OC)c3)C2=O)c1 | Active | Active | Non-toxic | –
COc1cc(/C=C2\CCC/C(=C\c3c(C)cc(C)cc3C)C2=O)ccc1O | Active | Active | Non-toxic | –
COc1cc(/C=C2\CCC/C(=C\c3ccccc3OC)C2=O)ccc1O | Active | Active | Non-toxic | –
COc1cc(/C=C2\CC/C(=C\c3c[nH]c4ncccc34)C2=O)ccc1O | Active | Active | Non-toxic | –
COc1cc(/C=C2\CCC/C(=C\c3cccc(OC)c3O)C2=O)ccc1O | Active | Active | Non-toxic | –
COc1cc(/C=C2\CCC/C(=C\c3cccc(F)c3)C2=O)ccc1O | Active | Active | Non-toxic | –
COc1cc(/C=C2\CCC/C(=C\c3ccccc3F)C2=O)ccc1O | Active | Active | Non-toxic | –
COc1cc(/C=C2\CCC/C(=C\c3cc(OC)c(OC)c(OC)c3)C2=O)ccc1O | Active | Active | Non-toxic | –
COc1ccc(/C=C2\CC/C(=C\c3ccc(O)c(OC)c3)C2=O)c(F)c1 | Active | Active | Non-toxic | –
COc1ccc(/C=C2\CCC/C(=C\c3ccc(O)c(OC)c3)C2=O)c(OC)c1 | Active | Active | Non-toxic | –
COc1cc(/C=C2\CCC/C(=C\c3cccc(Cl)c3Cl)C2=O)ccc1O | Active | Active | Non-toxic | –
COc1cc(/C=C2\CCC/C(=C\c3cc(Br)c(O)c(Br)c3)C2=O)ccc1O | Active | Active | Non-toxic | –
